Experimental data as given in ChEMBL document CHEMBL2034937, “Novel 3-Oxazolidinedione-6-aryl-pyridinones as Potent, Selective, and Orally Active EP3 Receptor Antagonists” (ACS Med Chem Lett, 2010).
Active and inactive are the calls of the source. The calls are words filed in the database; no cut-off is given here.

Legend:
Rattus norvegicus [1] = experiment: Inhibition of GR63799-induced decrease in bladder capacity in conscious spontaneously hypertensive overactive bladder rat model at 3 mg/kg, id; assay type: functional, organism-based; set-up: dose 3 mg/kg; conditions: Urinary bladder
Rattus norvegicus [2] = experiment: Inhibition of acetic acid-induced decrease in bladder capacity in conscious spontaneously hypertensive overactive bladder rat model at 30 mg/kg, id; assay type: functional, organism-based; set-up: dose 30 mg/kg; conditions: Urinary bladder
Rattus norvegicus [3] = experiment: Inhibition of PGE2-induced decrease in bladder capacity in conscious spontaneously hypertensive overactive bladder rat model at 30 mg/kg, id; assay type: functional, organism-based; set-up: dose 30 mg/kg; conditions: Urinary bladder
Rattus norvegicus [4] = experiment: Inhibition of GR63799-induced decrease in bladder capacity in conscious spontaneously hypertensive overactive bladder rat model at 0.3 mg/kg, id; assay type: functional, organism-based; set-up: dose 0.3 mg/kg; conditions: Urinary bladder
Rattus norvegicus [5] = experiment: Inhibition of GR63799-induced decrease in bladder capacity in conscious spontaneously hypertensive overactive bladder rat model at 30 mg/kg, id; assay type: functional, organism-based; set-up: dose 30 mg/kg; conditions: Urinary bladder
Rattus norvegicus [6] = experiment: Inhibition of saline-induced bladder rhythmic contraction in anesthetized iv dosed Sprague-Dawley rat model; assay type: functional, organism-based
[7] = Antagonist activity at dog EP3 receptor expressed in human U2OS cells co-expressing Gqi5 assessed as inhibition of PGE2-induced response after 24 hrs by FLIPR assay; assay type: functional, cell-based, Canis lupus familiaris
[8] = Drug metabolism in human liver S9 fraction assessed as NADPH-dependent glutathione conjugate level at 10 uM after 30 mins by LC-MS/MS analysis; assay type: ADME, subcellular; conditions: s9, 0.5 h
[9] = Drug metabolism in human liver S9 fraction assessed as glutathione conjugate level at 10 uM after 30 mins by HPLC in absence of NADPH; assay type: ADME, subcellular; conditions: s9, 0.5 h
[10] = Half life in Sprague-Dawley rat at 1 mg/kg, iv; assay type: ADME, organism-based; set-up: dose 1 mg/kg, route intravenous; conditions: in vivo
[11] = Oral bioavailability in Sprague-Dawley rat at 2 mg/kg; assay type: ADME, organism-based; conditions: in vivo
[12] = Drug metabolism in rat liver S9 fraction assessed as NADPH-dependent glutathione conjugate level at 10 uM after 30 mins by LC-MS/MS analysis; assay type: ADME, subcellular; conditions: s9, 0.5 h
[13] = Clearance in Sprague-Dawley rat at 1 mg/kg, iv and 2 mg/kg, po; assay type: ADME, organism-based; conditions: in vivo
[14] = target: T1, Prostaglandin E2 receptor EP3 subtype (Homo sapiens, UniProt P43115); experiment: Antagonist activity at human EP3c receptor expressed in human U2OS cells assessed as inhibition of PGE2-induced calcium mobilization after 24 hrs by FLIPR assay; assay type: functional, cell-based
T1 sequence (P43115 whole entry): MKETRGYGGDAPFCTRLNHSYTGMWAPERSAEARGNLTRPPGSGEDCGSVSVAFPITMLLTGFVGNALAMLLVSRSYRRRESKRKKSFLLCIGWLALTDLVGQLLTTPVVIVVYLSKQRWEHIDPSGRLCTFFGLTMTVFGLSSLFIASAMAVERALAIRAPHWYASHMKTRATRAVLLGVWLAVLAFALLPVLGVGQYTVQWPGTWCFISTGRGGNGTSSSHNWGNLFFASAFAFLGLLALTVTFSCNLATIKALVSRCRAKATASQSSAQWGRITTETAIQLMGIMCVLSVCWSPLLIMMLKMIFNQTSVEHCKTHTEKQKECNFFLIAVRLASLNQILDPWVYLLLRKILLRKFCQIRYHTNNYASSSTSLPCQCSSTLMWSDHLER

Rattus norvegicus [15] = experiment: Dose-normalized AUC in Sprague-Dawley rat at 2 mg/kg, po; assay type: ADME, organism-based; set-up: dose 2 mg/kg, route oral; conditions: in vivo
[16] = target: T2, Prostaglandin E2 receptor EP3 subtype (Rattus norvegicus, UniProt P34980); experiment: Antagonist activity at rat EP3 receptor expressed in human U2OS cells co-expressing Gqi5 assessed as inhibition of PGE2-induced response after 24 hrs by FLIPR assay; assay type: functional, cell-based
T2 sequence (P34980 whole entry): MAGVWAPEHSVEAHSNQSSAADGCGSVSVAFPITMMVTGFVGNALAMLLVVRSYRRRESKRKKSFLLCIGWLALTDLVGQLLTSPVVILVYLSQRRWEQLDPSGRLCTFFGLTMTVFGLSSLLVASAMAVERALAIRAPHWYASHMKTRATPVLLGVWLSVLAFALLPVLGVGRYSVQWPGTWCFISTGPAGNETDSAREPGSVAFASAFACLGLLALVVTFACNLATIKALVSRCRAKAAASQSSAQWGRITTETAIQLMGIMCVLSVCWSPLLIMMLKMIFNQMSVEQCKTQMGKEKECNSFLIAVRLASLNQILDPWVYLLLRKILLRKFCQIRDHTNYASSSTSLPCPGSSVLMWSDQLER

[17] = Drug metabolism in rat liver S9 fraction assessed as glutathione conjugate level at 10 uM after 30 mins by HPLC in absence of NADPH; assay type: ADME, subcellular; conditions: s9, 0.5 h

| SMILES | inhibition (Rattus norvegicus [1]) | inhibition (Rattus norvegicus [2]) | inhibition (Rattus norvegicus [3]) | inhibition (Rattus norvegicus [4]) | inhibition (Rattus norvegicus [5]) | inhibition (Rattus norvegicus [6]) | pKi [7] | Drug metabolism [8] | Drug metabolism [9] | half-life [10] | bioavailability [11] | Drug metabolism [12] | clearance [13] | Ki [14] | AUC/dose (Rattus norvegicus [15]) | Ki [16] | Drug metabolism [17] |
| --- | --- | --- | --- | --- | --- | --- | --- | --- | --- | --- | --- | --- | --- | --- | --- | --- | --- |
| CC(C)C1(c2ccc(-c3ccc4ccccc4c3)[nH]c2=O)OC(=O)NC1=O (configuration not stated) | Active | Active | Active | inactive | Active | Dose-dependent effect | 7.7 |  |  |  |  |  |  |  |  |  |  |
| CC(C)C1(c2ccc(-c3ccc4cccc(F)c4c3)[nH]c2=O)OC(=O)NC1=O (configuration not stated) |  |  |  |  |  |  |  | Not Active | Not Active | 3.9 h | 93% | Not Active | 2.8 mL/min/kg | 3.16 nM | 5.6 µg·h/mL/mg/kg | 3.16 nM | Not Active |
| Cc1ccc(-c2ccc(C3(C(C)C)OC(=O)NC3=O)c(=O)[nH]2)cc1C (configuration not stated) |  |  |  |  |  |  |  | Not Active | Not Active | 2.8 h | 68% | Not Active | 6.3 mL/min/kg | 20 nM | 1.8 µg·h/mL/mg/kg | 12.6 nM | Not Active |
